Results taken from paper PMC8699473, “An Easily Expandable Multi-Drug LC-MS Assay for the Simultaneous Quantification of 57 Oral Antitumor Drugs in Human Plasma” (Cancers, 2021).

Tests used:
[1] = Long-term stability in spiked pooled human plasma
[2] = Freeze-thaw stability in spiked pooled human plasma; type: physicochemical
[3] = parameters: method as in supplement references [1-55] as printed per drug; conditions: minimum steady-state blood plasma concentration after multiple dose administration; ref supplement references [1-55] per drug; cited from earlier work
[4] = Plasma concentrations in patients on oral antitumor therapy (LC-MS); type: in vivo, human
From the text: The liquid chromatography-mass spectrometer system consisted of a Thermo Scientific Dionex UltiMate^TM 3000 with an integrated and temperature controlled autosampler (Thermo Fisher Scientific, Dreieich, Germany). An Acquity UPLC® BEH C18 column (2.1 × 100 mm, 1.7 µm; Waters, Milford, CT, USA) equipped with an Acquity UPLC® BEH C18 VanGuard^TM Pre-Column (2.1 × 5 mm, 1.7 µm; Waters, Milford, CT, USA) was used for chromatographic separation. The Q-Exactive^TM Focus mass spectrometer (MS) was hyphenated with a heated electrospray ionization (HESI) source (both from Thermo Fisher Scientific, Dreieich, Germany).
Chromatographic separation was achieved using a gradient elution with water containing 0.5% (v/v) FA (eluent A) and MeOH with 0.1% (v/v) FA (eluent B). The injection volume was 5 µL. The gradient program is shown in Supplement Table S2. The flow rate was 0.5 mL/min with a total run time of 15 min. The column heater was maintained at 50 °C and the autosampler temperature was 4 °C.
The following MS and HESI settings were maintained for all analyses: Sheath gas, auxiliary gas, and sweep gas flow rates were set to 60, 20, and 0, respectively. The spray voltage was 4000 V. Both capillary and auxiliary gas heater temperatures were set to 400 °C. High-purity nitrogen gas was used for the HESI source gases and for the bath gas of the C-trap. […] The HESI source was configured in positive mode for ionization.
The stock solutions were stored in glass vials at −80 °C. Aliquots of all stock solutions were combined in ACN (volumes of individual stock solution solvents are negligible) to obtain a standard solution of all analytes with an individual concentration of 200% of the respective trough level (cmin). Eight individual working standards were prepared by stepwise dilution of this standard solution with concentrations from 10 to 200% cmin (shown in Supplement Table S3). Furthermore, the four individual IS stock solutions were combined and diluted to 50 ng/mL with ACN. Calibration and validation standards were prepared by spiking 50 µL pooled human plasma with 10 µL of the respective working solution. Next, 250 µL IS solution (50 ng/mL in ACN) were added and vortexed vigorously. […] Then, 100 µL supernatant were transferred to 300 µL HPLC insert glass vials and diluted with 100 µL eluent (90% A/10% B). For blank samples, 50 µL pooled human plasma were combined with 10 µL ACN (instead of working solution) and prepared as described above. The calibration and validation standards were freshly prepared before every run. Patient plasma samples were prepared as calibration and validation standards (no additional processing step necessary), except for adding 10 µL ACN instead of 10 µL working standard. Before sample preparation, the frozen plasma samples were thawed in absence of light at 4 °C.
Blood samples were collected over the entire dosing interval from patients treated with an oral anticancer drug as listed in Supplement Table S4. […] A maximum of two samples at two different time points throughout the entire dosing interval were collected per patient. Treatment duration before collection was at least five half-lives (depending on the specific oral anticancer drug). The samples were collected in K3-EDTA tubes.
A total of 71 blood samples from 39 patients treated with 14 different oral anticancer drugs were collected (see Supplement Table S4 for details). All patients were recruited from independent outpatient clinics associated with the Comprehensive Cancer Center of the University Hospital Erlangen (CCC Erlangen-EMN). Of 71 blood samples, 41 were taken ±4 h of trough level (cmin).

[5] = Autosampler stability of ready for injection samples; type: physicochemical, human
[6] = Short-term stability in spiked pooled human plasma (bench-top, 4 °C, 56 °C)
[7] = patient plasma, all samples, r.c. = respective cmin

COc1cc2nccc(Oc3ccc(NC(=O)Nc4cc(C)on4)c(Cl)c3)c2cc1OC [Tivozanib]
Long-term stability, 1 month, -20°C Accuracy [%] ([1]; validation standard 2xLLOV): 101.4% | Long-term stability, 1 month, -80°C Accuracy [%] ([1]; validation standard 2xLLOV): 95.7% | Long-term stability, 2 month, -20°C Accuracy [%] ([1]; validation standard 2xLLOV): 98.9% | Long-term stability, 2 month, -80°C Accuracy [%] ([1]; validation standard 2xLLOV): 101.4% | Long-term stability, 3 month, -20°C Accuracy [%] ([1]; validation standard 2xLLOV): 96.9% | Long-term stability, 3 month, -80°C Accuracy [%] ([1]; validation standard 2xLLOV): 95.2% | Long-term stability, 6 weeks, 4°C, without daylight Accuracy [%] ([1]; validation standard 2xLLOV): 93.9% | Long-term stability, 1 month, -20°C Accuracy [%] ([1]; validation standard LLOV): 99.8% | Long-term stability, 1 month, -80°C Accuracy [%] ([1]; validation standard LLOV): 96.0% | Long-term stability, 2 month, -20°C Accuracy [%] ([1]; validation standard LLOV): 95.8% | Long-term stability, 2 month, -80°C Accuracy [%] ([1]; validation standard LLOV): 100.7% | Long-term stability, 3 month, -20°C Accuracy [%] ([1]; validation standard LLOV): 92.5% | Long-term stability, 3 month, -80°C Accuracy [%] ([1]; validation standard LLOV): 97.1% | Long-term stability, 6 weeks, 4°C, without daylight Accuracy [%] ([1]; validation standard LLOV): 86.9% | Long-term stability, 1 month, -20°C Accuracy [%] ([1]; validation standard MOV): 97.4% | Long-term stability, 1 month, -80°C Accuracy [%] ([1]; validation standard MOV): 95.0% | Long-term stability, 2 month, -20°C Accuracy [%] ([1]; validation standard MOV): 102.0% | Long-term stability, 2 month, -80°C Accuracy [%] ([1]; validation standard MOV): 101.3% | Long-term stability, 3 month, -20°C Accuracy [%] ([1]; validation standard MOV): 100.0% | Long-term stability, 3 month, -80°C Accuracy [%] ([1]; validation standard MOV): 98.0% | Long-term stability, 6 weeks, 4°C, without daylight Accuracy [%] ([1]; validation standard MOV): 107.6% | Long-term stability, 1 month, -20°C Accuracy [%] ([1]; validation standard ULOV): 97.0% | Long-term stability, 1 month, -80°C Accuracy [%] ([1]; validation standard ULOV): 92.8% | Long-term stability, 2 month, -20°C Accuracy [%] ([1]; validation standard ULOV): 100.9% | Long-term stability, 2 month, -80°C Accuracy [%] ([1]; validation standard ULOV): 100.3% | Long-term stability, 3 month, -20°C Accuracy [%] ([1]; validation standard ULOV): 96.3% | Long-term stability, 3 month, -80°C Accuracy [%] ([1]; validation standard ULOV): 96.2% | Long-term stability, 6 weeks, 4°C, without daylight Accuracy [%] ([1]; validation standard ULOV): 100.6% | Freeze-Thaw Accuracy [%] ([2]; validation standard 2xLLOV): 96.8% | Freeze-Thaw Accuracy [%] ([2]; validation standard LLOV): 90.0% | Freeze-Thaw Accuracy [%] ([2]; validation standard MOV): 99.9% | Freeze-Thaw Accuracy [%] ([2]; validation standard ULOV): 98.1% | cmin [3]: 80 ng/mL | Interpatient Coefficient of Variation [%] ([4]; patient plasma concentrations): 53.8% | Median Concentration of All Samples [% of r.c.] [4, 7]: 41.4 % of r.c. | Min–Max Concentration [% of r.c.] [4, 7]: 16.4–68.3 % of r.c. | Autosampler (24h, 4°C) Accuracy [%] ([5]; validation standard 2xLLOV): 101.5% | Autosampler (72h, 4°C) Accuracy [%] ([5]; validation standard 2xLLOV): 102.7% | Autosampler (24h, 4°C) Accuracy [%] ([5]; validation standard LLOV): 94.0% | Autosampler (72h, 4°C) Accuracy [%] ([5]; validation standard LLOV): 95.0% | Autosampler (24h, 4°C) Accuracy [%] ([5]; validation standard MOV): 104.6% | Autosampler (72h, 4°C) Accuracy [%] ([5]; validation standard MOV): 102.4% | Autosampler (24h, 4°C) Accuracy [%] ([5]; validation standard ULOV): 101.6% | Autosampler (72h, 4°C) Accuracy [%] ([5]; validation standard ULOV): 103.1% | Short-time stability (1h, 56°C) Accuracy [%] ([6]; validation standard 2xLLOV): 49.4% | Short-time stability (24h, 4°C, without daylight) Accuracy [%] ([6]; validation standard 2xLLOV): 103.2% | Short-time stability (24h, RT, with daylight) Accuracy [%] ([6]; validation standard 2xLLOV): 104.0% | Short-time stability (24h, RT, without daylight) Accuracy [%] ([6]; validation standard 2xLLOV): 103.9% | Short-time stability (1h, 56°C) Accuracy [%] ([6]; validation standard LLOV): 38.6% | Short-time stability (24h, 4°C, without daylight) Accuracy [%] ([6]; validation standard LLOV): 102.5% | Short-time stability (24h, RT, with daylight) Accuracy [%] ([6]; validation standard LLOV): 99.0% | Short-time stability (24h, RT, without daylight) Accuracy [%] ([6]; validation standard LLOV): 100.8% | Short-time stability (1h, 56°C) Accuracy [%] ([6]; validation standard MOV): 49.6% | Short-time stability (24h, 4°C, without daylight) Accuracy [%] ([6]; validation standard MOV): 100.8% | Short-time stability (24h, RT, with daylight) Accuracy [%] ([6]; validation standard MOV): 103.5% | Short-time stability (24h, RT, without daylight) Accuracy [%] ([6]; validation standard MOV): 105.8% | Short-time stability (1h, 56°C) Accuracy [%] ([6]; validation standard ULOV): 42.5% | Short-time stability (24h, 4°C, without daylight) Accuracy [%] ([6]; validation standard ULOV): 98.0% | Short-time stability (24h, RT, with daylight) Accuracy [%] ([6]; validation standard ULOV): 104.7% | Short-time stability (24h, RT, without daylight) Accuracy [%] ([6]; validation standard ULOV): 103.8%
